Measured values taken from paper PMC4206749 (Toxicological Research, 2014).
Marks after values point to notes of the source that are not given here. Blank lines part the entries; values can stand above or below the compound they belong to.

Assays:
[1] = tested on: Salmonella typhimurium strain TA100; test: Bacterial reverse mutation assay; format: cell-based
[2] = tested on: Salmonella typhimurium strain TA1535; test: Bacterial reverse mutation assay; format: cell-based
[3] = tested on: Escherichia coli strain (WP2 uvrA); test: Bacterial reverse mutation assay; format: cell-based; details: E. coli
[4] = tested on: Salmonella typhimurium strain TA98; test: Bacterial reverse mutation assay; format: cell-based
[5] = tested on: Salmonella typhimurium strain TA1537; test: Bacterial reverse mutation assay; format: cell-based
[6] = tested on: S. typhimurium strain TA100 and TA98, E. coli strain WP2uvrA; details: presence and absence of the S9 mix, 0.02~5000 μg per plate; cited from earlier work
[7] = tested on: CHL cells (Chinese hamster lung fibroblast cell line); test: In vitro chromosomal aberration assay; format: cell-based
[8] = tested on: L5178Y Tk^+/− mouse lymphoma cells; test: In vitro comet assay; format: cell-based; details: for % DNA in tail / Olive moment / Tail length / Tail moment: 4 hr; for Comet parameters compared to vehicle: p < 0.05
[9] = positive control 35 μg/ml with S9 mix
[10] = positive control 10 μg/ml, with metabolic activation, short term treatment
[11] = positive control 15 μg/ml without S9 mix

Compound: Nc1ccc2cc3ccccc3cc2c1 [2-AA, 2-aminoanthracene, reference compound]
Number of reverse mutants/plate (Mean ± SD) ([1]; TA100, with S9 activation, positive control 1.0 μg/plate): 598 ± 20 reverse mutants/plate
Number of reverse mutants/plate (Mean ± SD) ([2]; TA1535, with S9 activation, positive control 2.0 μg/plate): 156 ± 6 reverse mutants/plate
Number of reverse mutants/plate (Mean ± SD) ([3]; with S9 activation, positive control 10 μg/plate): 428 ± 21 reverse mutants/plate
Number of reverse mutants/plate (Mean ± SD) ([4]; TA98, with S9 activation, positive control 0.5 μg/plate): 232 ± 9 reverse mutants/plate
Number of reverse mutants/plate (Mean ± SD) ([5]; TA1537, with S9 activation, positive control 2.0 μg/plate): 118 ± 16 reverse mutants/plate

Compound: Oc1ccc(/C=C/c2cc(O)cc(O)c2)cc1 [Resveratrol]
Bacterial reverse mutation assay result [6]: negative

Compound: Nc1c2ccccc2nc2ccccc12 [9-AA, 9-aminoacridine, reference compound]
Number of reverse mutants/plate (Mean ± SD) ([5]; TA1537, without S9 activation, positive control 80 μg/plate): 151 ± 11 reverse mutants/plate

Gap ([7]; positive control 0.5 μg/ml, continuous treatment, 200 cells): 8
Compound: CO[C@@]12[C@H](COC(N)=O)C3=C(C(=O)C(C)=C(N)C3=O)N1C[C@@H]1N[C@@H]12 [MMC, mitomycin C, reference compound]

Compound: NC(=O)C(=Cc1ccc([N+](=O)[O-])o1)c1ccco1 [AF-2, 2-(2-furyl)-3-(5-nitro-2-furyl) acrylamide, reference compound]
Number of reverse mutants/plate (Mean ± SD) ([1]; TA100, without S9 activation, positive control 0.01 μg/plate): 425 ± 23 reverse mutants/plate
Number of reverse mutants/plate (Mean ± SD) ([3]; without S9 activation, positive control 0.01 μg/plate): 334 ± 23 reverse mutants/plate
Number of reverse mutants/plate (Mean ± SD) ([4]; TA98, without S9 activation, positive control 0.1 μg/plate): 278 ± 20 reverse mutants/plate

Compound: c1ccc2c(c1)cc1ccc3cccc4ccc2c1c34 [BaP, benzo(A)pryene, reference compound]
% DNA in tail [8, 9]: 49.14 ± 3.29 %
Olive moment [8, 9]: 13.74 ± 1.97 μm
Tail length [8, 9]: 80.29 ± 6.24 μm
Tail moment [8, 9]: 42.15 ± 3.98 μm
Comet parameters compared to vehicle ([8]; positive control with S9 mix): increased significantly

Compound: O=P1(N(CCCl)CCCl)NCCCO1 (stereo not shown) [CPA, cyclophosphamide, reference compound]
Total frequency (+) Gap [7, 10]: 132** %
Total frequency (−) Gap [7, 10]: 116** %
Frequency of cells with chromosomal aberration ([7]; positive control, treatment with metabolic activation): > 10%

Compound: [N-]=[N+]=[N-].[Na+] [NaN3, sodium azide, reference compound]
Number of reverse mutants/plate (Mean ± SD) ([2]; TA1535, without S9 activation, positive control 0.5 μg/plate): 151 ± 17 reverse mutants/plate

Compound: COS(C)(=O)=O [MMS, methyl methansulfonate, reference compound]
% DNA in tail [8, 11]: 51.29 ± 4.26 %
Olive moment [8, 11]: 14.68 ± 1.01 μm
Tail length [8, 11]: 97.21 ± 6.75 μm
Tail moment [8, 11]: 58.13 ± 6.12 μm
Comet parameters compared to vehicle ([8]; positive control without S9 mix): increased significantly
